Converted amounts (≈) assume the structure as drawn.
What was measured:
KB = assay: In vitro anti-proliferative activity against human tumor cell lines (KB); type: cell-based; conditions: Nasopharyngeal carcinoma, 72 hours
Procedure: (§1) In vitro anti-proliferative activity against human tumor cell lines
(§2) Test Compound: 5-ethynyl-1-β-D-ribofuranosylimidazole-4-carboxamide
(§3) A variety of human tumor cell lines are suspended in media specified according to the species of the cell lines to predetermined cell concentrations as shown in the following Table.
(§4) 1 ml of the resulting cell suspension is seeded into each well of a 24 multi-well plate and incubated in a 5% CO2 -incubator at 37° C. for 24 hours. The culture medium is then replaced by a medium containing no test compound or by an appropriate amount of a serially diluted test compound solution. […] The number of the cells in each well is counted with a Coulter counter (Model ZB, Coulter Electronics), and the growth inhibition percent (%) of the cells at each concentration of a test compound is determined by the following equation: [formula] Tx: Number of the cells in a well containing a test compound as counted upon completion of the incubation (cells/ml) […] Cx: Number of the cells in a well containing no test compound as counted upon completion of the incubation (cells/ml)
(§5) Co: Number of the cells in a well containing no test compound as counted at the initiation of the incubation (cells/ml) […]

WiDr = assay: In vitro anti-proliferative activity against human tumor cell lines (WiDr); type: cell-based; conditions: Colon adenocarcinoma, 72 hours
Procedure: as §1, §2, §3, §4, §5

SK-MES-1 = assay: In vitro anti-proliferative activity against human tumor cell lines (SK-MES-1); type: cell-based; conditions: SK-MES-1, Lung Squamous carcinoma, 72 hours
Procedure: as §1, §2, §3, §4, §5

A549 = assay: In vitro anti-proliferative activity against human tumor cell lines (A549); type: cell-based; conditions: A549, Lung carcinoma, 72 hours
Procedure: as §1, §2, §3, §4, §5

T24 = assay: In vitro anti-proliferative activity against human tumor cell lines (T24); type: cell-based; conditions: T-24, T24, Bladder trasitional-cell carcinoma, 72 hours
Procedure: as §1, §2, §3, §4, §5

HeLa = assay: In vitro anti-proliferative activity against human tumor cell lines (HeLa); type: cell-based; conditions: Cervical carcinoma, 72 hours
Procedure: as §1, §2, §3, §4, §5

HEp-2 = assay: In vitro anti-proliferative activity against human tumor cell lines (HEp-2); type: cell-based; conditions: HEp-2, Laryngeal carcinoma, 72 hours
Procedure: as §1, §2, §3, §4, §5

Dul45 = assay: In vitro anti-proliferative activity against human tumor cell lines (Dul45); type: cell-based; conditions: Dul45, Prostate carcinoma, 72 hours
Procedure: as §1, §2, §3, §4, §5

QG-56 = assay: In vitro anti-proliferative activity against human tumor cell lines (QG-56); type: cell-based; conditions: QG-56, Lung squamous carcinoma, 72 hours
Procedure: as §1, §2, §3, §4, §5

sarcoma 180 = assay: In vivo antitumor activity against sarcoma 180 intracutaneously implanted into BALB/c mice; set-up: species or system mouse; key to Tumor growth rate (Rt): R = tumor volume at time / tumor volume on day 8 (A/A8); conditions: for antitumor activity: i.v.
Procedure: In vivo antitumor activity against sarcoma 180 intracutaneously implanted into BALB/c mice
Three million (3×10^6) Sarcoma 180 cells are intracutaneously implanted at the ventral site of BALB/c mice (male, 5 weeks old). Eight days after the implantation when the tumor volume reached 200 to 300 mm^3, the mice are divided into groups (6 mice/group), and the treatment with a test drug was started. The test drug is dissolved in distilled water and intravenously administered to the mice at a rate of 0.1 ml per 10 g of the body weight thereof. In accordance with two different schedules, 5-ethynyl01β-D-ribofuranosylimidazole-4-carboxamide is administered once or three times, i.e., once at a dose of 250 mg/kg on day 8 (single-dose group) or three times at a dose of 125 mg/kg on days 8, 12 and 16 (multiple-dose group).
Each mouse is weighed, and the width (a mm) and length (b mm) of the tumor thereof are measured twice a week to determine the tumor volume (A mm^3) from the following equation: […]
Subsequently, the tumor growth rate (R) is determined as follows on the basis of the tumor volume (A8) on day 8 after the implantation of the tumor cells :
R: Tumor growth rate after a predetermined period from the tumor implantation
A: Tumor volume after a predetermined period from the tumor implantation
A8 : Tumor volume as determided 8 days after the tumor implantation
T/C(%) is further obtained from the following equation by comparison between the tumor growth rate in the test group (Rt) and that in the control group (Rc):
Single-dose group: 250 mg/kg of the drug was intravenously administered o
day 8 after the tumor implantation.
Multipledose group: 125 mg/kg of the drug was intravenously administered
on days 8, 12 and 16 after the tumor implantation.

[1] = multiple-dose group, 125 mg/kg i.v. days 8, 12, 16, day 8 after implantation
[2] = multiple-dose group, 125 mg/kg i.v. days 8, 12, 16, day 12
[3] = multiple-dose group, 125 mg/kg i.v. days 8, 12, 16, day 15, * = P < 0.05 vs control
[4] = multiple-dose group, 125 mg/kg i.v. days 8, 12, 16, day 19, * = P < 0.05 vs control
[5] = multiple-dose group, 125 mg/kg i.v. days 8, 12, 16, day 22, * = P < 0.05 vs control
[6] = multiple-dose group, 125 mg/kg i.v. days 8, 12, 16, day 26, * = P < 0.05 vs control
[7] = multiple-dose group, 125 mg/kg i.v. days 8, 12, 16, day 29, * = P < 0.05 vs control
[8] = multiple-dose group, 125 mg/kg i.v. days 8, 12, 16, day 33
[9] = single-dose group, 250 mg/kg i.v. day 8, day 8 after implantation
[10] = single-dose group, 250 mg/kg i.v. day 8, day 12, * = P < 0.05 vs control
[11] = single-dose group, 250 mg/kg i.v. day 8, day 15, * = P < 0.05 vs control
[12] = single-dose group, 250 mg/kg i.v. day 8, day 19, * = P < 0.05 vs control
[13] = single-dose group, 250 mg/kg i.v. day 8, day 22, * = P < 0.05 vs control
[14] = single-dose group, 250 mg/kg i.v. day 8, day 26, * = P < 0.05 vs control
[15] = single-dose group, 250 mg/kg i.v. day 8, day 29, * = P < 0.05 vs control
[16] = single-dose group, 250 mg/kg i.v. day 8, day 33, * = P < 0.05 vs control

Structure (SMILES): C#Cc1c(C(N)=O)ncn1[C@@H]1O[C@H](CO)[C@@H](O)[C@H]1O [5-ethynyl-1-β-D-ribofuranosylimidazole-4-carboxamide]
- IC50 (KB): 0.33 µg/mL (≈ 1.23 µM)
- IC50 (WiDr): 0.46 µg/mL (≈ 1.72 µM)
- IC50 (SK-MES-1): 0.26 µg/mL (≈ 0.973 µM)
- IC50 (A549): 0.37 µg/mL (≈ 1.38 µM)
- IC50 (T24): 0.37 µg/mL (≈ 1.38 µM)
- IC50 (HeLa): 0.3 µg/mL (≈ 1.12 µM)
- IC50 (HEp-2): 0.47 µg/mL (≈ 1.76 µM)
- IC50 (Dul45): < 0.1 µg/mL
- IC50 (QG-56): 0.37 µg/mL (≈ 1.38 µM)
- antitumor activity (sarcoma 180; 125 mg/kg every 4 days 3 times in total): remarkable antitumor activity
- Body weight (sarcoma 180; [1]): 26 g
- T/C (%) (sarcoma 180; [1]): 100%
- Tumor growth rate (Rt) (sarcoma 180; [1]): 1.0
- Body weight (sarcoma 180; [2]): 26 g
- T/C (%) (sarcoma 180; [2]): 81%
- Tumor growth rate (Rt) (sarcoma 180; [2]): 1.5
- Body weight (sarcoma 180; multiple-dose group, 125 mg/kg i.v. days 8, 12, 16, day 15): 25 g
- T/C (%) (sarcoma 180; [3]): 51%
- Tumor growth rate (Rt) (sarcoma 180; [3]): 1.5
- Body weight (sarcoma 180; multiple-dose group, 125 mg/kg i.v. days 8, 12, 16, day 19): 25 g
- T/C (%) (sarcoma 180; [4]): 45%
- Tumor growth rate (Rt) (sarcoma 180; [4]): 1.9
- Body weight (sarcoma 180; multiple-dose group, 125 mg/kg i.v. days 8, 12, 16, day 22): 26 g
- T/C (%) (sarcoma 180; [5]): 37%
- Tumor growth rate (Rt) (sarcoma 180; [5]): 2.6
- Body weight (sarcoma 180; multiple-dose group, 125 mg/kg i.v. days 8, 12, 16, day 26): 26 g
- T/C (%) (sarcoma 180; [6]): 39%
- Tumor growth rate (Rt) (sarcoma 180; [6]): 4.7
- Body weight (sarcoma 180; multiple-dose group, 125 mg/kg i.v. days 8, 12, 16, day 29): 26 g
- T/C (%) (sarcoma 180; [7]): 42%
- Tumor growth rate (Rt) (sarcoma 180; [7]): 7.0
- Body weight (sarcoma 180; [8]): 27 g
- T/C (%) (sarcoma 180; [8]): 53%
- Tumor growth rate (Rt) (sarcoma 180; [8]): 11
- antitumor activity (sarcoma 180; once at a dose of 250 mg/kg): remarkable antitumor activity
- Body weight (sarcoma 180; [9]): 25 g
- T/C (%) (sarcoma 180; [9]): 100%
- Tumor growth rate (Rt) (sarcoma 180; [9]): 1.0
- Body weight (sarcoma 180; single-dose group, 250 mg/kg i.v. day 8, day 12): 24 g
- T/C (%) (sarcoma 180; [10]): 65%
- Tumor growth rate (Rt) (sarcoma 180; [10]): 1.2
- Body weight (sarcoma 180; single-dose group, 250 mg/kg i.v. day 8, day 15): 25 g
- T/C (%) (sarcoma 180; [11]): 45%
- Tumor growth rate (Rt) (sarcoma 180; [11]): 1.3
- Body weight (sarcoma 180; single-dose group, 250 mg/kg i.v. day 8, day 19): 25 g
- T/C (%) (sarcoma 180; [12]): 46%
- Tumor growth rate (Rt) (sarcoma 180; [12]): 2.0
- Body weight (sarcoma 180; single-dose group, 250 mg/kg i.v. day 8, day 22): 26 g
- T/C (%) (sarcoma 180; [13]): 34%
- Tumor growth rate (Rt) (sarcoma 180; [13]): 2.4
- Body weight (sarcoma 180; single-dose group, 250 mg/kg i.v. day 8, day 26): 26 g
- T/C (%) (sarcoma 180; [14]): 39%
- Tumor growth rate (Rt) (sarcoma 180; [14]): 4.7
- Body weight (sarcoma 180; single-dose group, 250 mg/kg i.v. day 8, day 29): 26 g
- T/C (%) (sarcoma 180; [15]): 39%
- Tumor growth rate (Rt) (sarcoma 180; [15]): 6.6
- Body weight (sarcoma 180; single-dose group, 250 mg/kg i.v. day 8, day 33): 27 g
- T/C (%) (sarcoma 180; [16]): 45%
- Tumor growth rate (Rt) (sarcoma 180; [16]): 9.5

Reference: US5059590A, “Imidazole derivatives, process for production thereof, and use thereof” (Yamasa Shoyu Kabushiki Kaisha, priority 1988, dated 1991)
